Experimental data from the CheMixHub ionic liquid set.
± gives the uncertainty stated by the source.

Assay: xn = mol fraction of the nth substance listed
Conditions: 101 kPa

CCCCCCCCCCCCCCCC[n+]1ccccc1.O=C([O-])C(O)c1ccccc1 + NCC(=O)O + O
electrical conductivity [S/m]
Conditions	303.15 K	308.15 K	313.15 K
x1 = 1.08e-06, x2 = 0	–	0.00083 ± 0.0013	0.0009 ± 0.0015
x1 = 1.09e-06, x2 = 0.001799	–	0.0015 ± 0.0012	0.0017 ± 0.0013
x1 = 1.26e-06, x2 = 0.0009002	–	0.0012 ± 0.0011	0.0013 ± 0.0012
x1 = 1.98e-06, x2 = 0	–	0.0014 ± 0.0014	0.0016 ± 0.0015
x1 = 2.17e-06, x2 = 0.001799	–	0.0022 ± 0.0012	0.0024 ± 0.0013
x1 = 2.35e-06, x2 = 0.0009002	–	0.0018 ± 0.0011	0.0019 ± 0.0013
x1 = 2.88e-06, x2 = 0	–	0.002 ± 0.0014	0.0022 ± 0.0015
x1 = 3.26e-06, x2 = 0.001799	–	0.0027 ± 0.0012	0.003 ± 0.0014
x1 = 3.43e-06, x2 = 0.0009002	–	0.0023 ± 0.0011	0.0025 ± 0.0013
x1 = 3.96e-06, x2 = 0	–	0.0026 ± 0.0014	0.0029 ± 0.0015
x1 = 4.35e-06, x2 = 0.001799	–	0.0033 ± 0.0012	0.0036 ± 0.0013
x1 = 4.52e-06, x2 = 0.0009002	–	0.0029 ± 0.0011	0.0032 ± 0.0013
x1 = 4.69e-06, x2 = 0	–	0.0031 ± 0.0014	0.0035 ± 0.0015
x1 = 5.26e-06, x2 = 0.001799	–	0.0038 ± 0.0012	0.0042 ± 0.0013
x1 = 5.78e-06, x2 = 0.0009002	–	0.0036 ± 0.0012	0.004 ± 0.0013
x1 = 5.95e-06, x2 = 0	–	0.0038 ± 0.0013	0.0042 ± 0.0015
x1 = 6.52e-06, x2 = 0.001799	–	0.0045 ± 0.0012	0.005 ± 0.0014
x1 = 7.05e-06, x2 = 0.0009002	–	0.0042 ± 0.0011	0.0046 ± 0.0013
x1 = 7.21e-06, x2 = 0	–	0.0046 ± 0.0013	0.0051 ± 0.0015
x1 = 8.16e-06, x2 = 0.001799	–	0.0053 ± 0.0012	0.0059 ± 0.0013
x1 = 8.31e-06, x2 = 0.0009002	0.0045 ± 0.001	0.0049 ± 0.0011	0.0054 ± 0.0013
x1 = 8.83e-06, x2 = 0	0.005 ± 0.0011	0.0055 ± 0.0013	0.006 ± 0.0014
x1 = 9.79e-06, x2 = 0.001799	0.0055 ± 0.001	0.0061 ± 0.0012	0.0068 ± 0.0013
x1 = 9.94e-06, x2 = 0.0009002	0.0051 ± 0.001	0.0056 ± 0.0011	0.0063 ± 0.0013
x1 = 1.045e-05, x2 = 0	0.0058 ± 0.0011	0.0065 ± 0.0012	0.0071 ± 0.0014
x1 = 1.124e-05, x2 = 0.001799	0.006 ± 0.001	0.0067 ± 0.0011	0.0075 ± 0.0013
x1 = 1.138e-05, x2 = 0.0009002	0.00561 ± 0.00091	0.0062 ± 0.001	0.007 ± 0.0012
x1 = 1.207e-05, x2 = 0	0.0064 ± 0.0011	0.0071 ± 0.0012	0.0079 ± 0.0014
x1 = 1.269e-05, x2 = 0.001799	0.0065 ± 0.00098	0.0073 ± 0.0011	0.0081 ± 0.0012
x1 = 1.283e-05, x2 = 0.0009002	0.00607 ± 0.00091	0.0068 ± 0.001	0.0076 ± 0.0011
x1 = 1.351e-05, x2 = 0	0.007 ± 0.0011	0.0077 ± 0.0012	0.0085 ± 0.0013
x1 = 1.41e-05, x2 = 0.0009002	0.00647 ± 0.00092	0.0072 ± 0.001	0.008 ± 0.0011
x1 = 1.414e-05, x2 = 0.001799	0.007 ± 0.001	0.0078 ± 0.0011	0.0087 ± 0.0012
x1 = 1.478e-05, x2 = 0	0.0075 ± 0.0011	0.0083 ± 0.0012	0.0092 ± 0.0013
x1 = 1.54e-05, x2 = 0.001799	0.0074 ± 0.001	0.0083 ± 0.0012	0.0092 ± 0.0013
x1 = 1.554e-05, x2 = 0.0009002	0.0069 ± 0.001	0.0077 ± 0.0012	0.0086 ± 0.0014
x1 = 1.622e-05, x2 = 0	0.008 ± 0.0011	0.0089 ± 0.0013	0.0098 ± 0.0014
x1 = 1.667e-05, x2 = 0.001799	0.0078 ± 0.0011	0.0087 ± 0.0012	0.0097 ± 0.0013
x1 = 1.681e-05, x2 = 0.0009002	0.0073 ± 0.0011	0.0082 ± 0.0012	0.0091 ± 0.0015
x1 = 1.766e-05, x2 = 0	0.0085 ± 0.0012	0.0094 ± 0.0013	0.0104 ± 0.0014
